The record followed here is patent publication US5597848A, “Benzenesulfonamide derivatives and use thereof” (Hokuriku Seiyaku Co., Ltd., priority 1992, dated 1997).

Molecules are shown by their SMILES.

The target in the assay is T1, thromboxane A2 receptor (Cavia porcellus, UniProt A0A286Y4I8).
T1 construct: platelet-rich plasma; endogenous in cells; host or cells: guinea-pig platelets in platelet-rich plasma
T1 sequence (A0A286Y4I8 1-347): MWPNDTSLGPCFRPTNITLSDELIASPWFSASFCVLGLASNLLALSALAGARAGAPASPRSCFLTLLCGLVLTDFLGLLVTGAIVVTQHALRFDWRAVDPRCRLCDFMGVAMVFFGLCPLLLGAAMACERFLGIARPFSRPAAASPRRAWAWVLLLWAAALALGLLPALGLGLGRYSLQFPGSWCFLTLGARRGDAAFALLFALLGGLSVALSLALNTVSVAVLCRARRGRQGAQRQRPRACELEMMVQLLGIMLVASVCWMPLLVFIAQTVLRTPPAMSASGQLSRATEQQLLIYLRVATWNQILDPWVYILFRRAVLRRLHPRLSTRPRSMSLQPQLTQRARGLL
Briefly: Thromboxane A2 antagonistic effect: inhibition of U-46619-induced platelet aggregation in guinea-pig platelet-rich plasma. It is filed as cell-based, guinea-pigs. Particulars: guinea-pig PRP, U-46619 2 μg/ml, 2 min at 37° C.; read-out: IC50 (50% inhibition against platelet aggregation). The protocol:
Blood was collected from the abdominal aorta of guinea-pigs (about 400 g wt.) into 1/10 volume of 3.8% sodium citrate, and then platelet-rich plasma (PRP: 6×10^5 cells/μl) was obtained by centrifugation. A cuvette was filled with PRP 190 μl and set in an aggregometer (Hema Tracer I; Niko Bioscience). Incubation was carried out for 2 min. at 37° C. after the addition of 1 μl of dimethyl sulfoxide solution of test compounds. To the PRP, 10 μl of U-46619 (Cayman), a thromboxane A2 /prostaglandin H2 receptor agonist and potent platelet aggregation inducer, was added at the final concentration of 2 μg/ml, and platelet aggregation was measured by an aggregometer.
The IC50 is the point on the concentration scale where inhibition reaches its midpoint. Take `CC(C)CC(NS(=O)(=O)c1ccc(Cl)cc1)c1ccc(CCCC(=O)O)cc1` (stereo not shown) [Example 70, 4-[4-[1-(4-Chlorophenylsulfonylamino)-3-methylbutyl]phenyl]butyric Acid]: the concentration for half-maximal inhibition (IC50) was found to be 320 nM. Next, `CCC(NS(=O)(=O)c1ccc(Cl)cc1)c1ccc(CCCC(=O)O)cc1` (stereo not shown) [Example 64, 4-[4-[1-(4-Chlorophenylsulfonylamino)propyl]phenyl]butyric Acid]: 160 nM; `O=C(O)CCCc1ccc(C(CCCCC2CCCCC2)NS(=O)(=O)c2ccc(Cl)cc2)cc1` (stereo not shown) [Example 82, 4-[4-[1-(4-Chlorophenylsulfonylamino)-5-cyclohexylpentyl]phenyl]butyric Acid]: 400 nM; `COc1ccc(S(=O)(=O)NC(Cc2ccccc2)c2ccc(CCCC(=O)O)cc2)cc1` (stereo not shown) [Example 91, 4-[4-[1-(4-Methoxyphenylsulfonylamino)-2-phenylethyl]phenyl]butyric Acid]: 320 nM. In the case of `O=C(O)CCCCc1ccc(C(Cc2ccccc2)NS(=O)(=O)c2ccc(Cl)cc2)cc1` (stereo not shown) [Example 92, 5-[4-[1-(4-Chlorophenylsulfonylamino)-2-phenylethyl]phenyl]valeric Acid], the IC50 was 320 nM. Next, `O=C(O)CCCc1ccc(C(Cc2ccccc2F)NS(=O)(=O)c2ccc(Cl)cc2)cc1` (stereo not shown) [Example 93, 4-[4-[1-(4-Chlorophenylsulfonylamino)-2-(2-fluorophenyl)ethyl]phenyl]butyric Acid]: 320 nM; `Cc1ccc(S(=O)(=O)NC(Cc2ccccc2)c2ccc(CCCC(=O)O)cc2)cc1` (stereo not shown) [Example 90, 4-[4-[1-(p-Tolylsulfonylamino)-2-phenylethyl]phenyl]butyric Acid]: 320 nM. Next, `O=C(O)CCCc1ccc(C(Cc2cccc(F)c2)NS(=O)(=O)c2ccc(Cl)cc2)cc1` (stereo not shown) [Example 94, 4-[4-[1-(4-Chlorophenylsulfonylamino)-2-(3-fluorophenyl)ethyl]phenyl]butyric Acid]: 63 nM; `CC(C)(C)CC(NS(=O)(=O)c1ccc(Cl)cc1)c1ccc(CCCC(=O)O)cc1` (stereo not shown) [Example 72, 4-[4-[1-(4-Chlorophenylsulfonylamino)-3,3-dimethylbutyl]phenyl]butyric Acid]: 320 nM. Turning to `O=C(O)CCCc1ccc(C(Cc2ccccc2)NS(=O)(=O)c2ccccc2)cc1` (stereo not shown) [Example 87, 4-[4-[2-phenyl-1-(phenylsulfonylamino)ethyl]phenyl]butyric Acid], the IC50 stood at 320 nM. As for `O=C(O)CCCc1ccc(C(CCCc2ccccc2)NS(=O)(=O)c2ccc(Cl)cc2)cc1` (stereo not shown) [Example 114, 4-[4-[1-(4-Chlorophenylsulfonylamino)-4-phenylbutyl]phenyl]butyric Acid], the figure is 320 nM; as for `CCCCCCCC(NS(=O)(=O)c1ccc(Cl)cc1)c1ccc(CCCC(=O)O)cc1` (stereo not shown) [Example 100, 4-[4-[1-(4-Chlorophenylsulfonylamino)octyl]phenyl]butyric Acid], 790 nM; as for `O=C(O)CCCc1ccc(C(CCCCc2ccccc2)NS(=O)(=O)c2ccc(Cl)cc2)cc1` (stereo not shown) [Example 115, 4-[4-[1-(4-Chlorophenylsulfonylamino)-5-phenylpentyl]phenyl]-butyric Acid], 320 nM. As for `O=C(O)CCc1ccc(C(Cc2ccccc2)NS(=O)(=O)c2ccc(Cl)cc2)cc1` (stereo not shown) [Example 86, 3-[4-[1-(4-Chlorophenylsulfonylamino)-2-phenylethyl]phenyl]propionic Acid], the IC50 is 250 nM. Next, `O=C(O)CCCc1ccc(C(Cc2ccccc2)NS(=O)(=O)c2ccc(Br)cc2)cc1` (stereo not shown) [Example 89, 4-[4-[1-(4-Bromophenylsulfonylamino)-2-phenylethyl]phenyl]butyric Acid]: 32 nM; `O=C(O)CCCc1ccc(C(Cc2ccccc2)NS(=O)(=O)c2ccc(F)cc2)cc1` (stereo not shown) [Example 88, 4-[4-[1-(4-Fluorophenylsulfonylamino)-2-phenylethyl]phenyl]butyric Acid]: 320 nM.
